Measurements: patent US9365512B2, “Isoindoline derivatives, pharmaceutical compositions containing them, and their use in therapy” (AbbVie Deutschland GmbH & Co. KG, priority 2012, dated 2016)

biological target: T1, human GlyT1c transporter (Homo sapiens, UniProt P48067); experiment: Radioligand binding assay using recombinant CHO cell membranes expressing human GlyT1; settings: read-out: radioligand binding Kiapp
T1 construct: expressed in transfected cells; host or cells: CHO cells (recombinant; membranes)
T1 sequence (P48067 1-706): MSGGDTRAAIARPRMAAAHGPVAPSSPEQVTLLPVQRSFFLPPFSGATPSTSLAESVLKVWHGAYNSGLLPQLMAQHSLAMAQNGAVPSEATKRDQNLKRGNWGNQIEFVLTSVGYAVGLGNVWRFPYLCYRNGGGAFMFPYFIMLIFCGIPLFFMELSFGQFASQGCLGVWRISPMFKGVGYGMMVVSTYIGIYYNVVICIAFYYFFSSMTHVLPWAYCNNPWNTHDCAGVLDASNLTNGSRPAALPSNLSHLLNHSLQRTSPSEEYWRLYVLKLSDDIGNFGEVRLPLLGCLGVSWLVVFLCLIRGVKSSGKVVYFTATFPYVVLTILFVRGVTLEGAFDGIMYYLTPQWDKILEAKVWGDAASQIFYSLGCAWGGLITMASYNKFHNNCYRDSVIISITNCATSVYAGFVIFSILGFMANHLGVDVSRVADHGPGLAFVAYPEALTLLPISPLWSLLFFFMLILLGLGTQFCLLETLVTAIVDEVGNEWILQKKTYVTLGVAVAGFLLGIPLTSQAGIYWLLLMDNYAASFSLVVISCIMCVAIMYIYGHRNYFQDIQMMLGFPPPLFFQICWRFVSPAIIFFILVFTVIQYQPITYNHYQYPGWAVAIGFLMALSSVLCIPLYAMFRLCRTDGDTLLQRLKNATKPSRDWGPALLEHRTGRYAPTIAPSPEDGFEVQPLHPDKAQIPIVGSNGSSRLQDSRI
Procedure: 2. Radioligand Binding Assays Using Recombinant CHO Cell Membranes Expressing Human GlyT1:
Radioligand binding to human GlyT1c transporter-expressing membranes was determined as described in Mezler et al., Molecular Pharmacology 74:1705-1715, 2008.

| Ki [µM] | Structure (SMILES) |
| --- | --- |
| < 1 | Cn1cnc(S(=O)(=O)NCc2ccc3c(c2)C(Cc2ccccc2)NC3=O)c1 (centres unmarked) [Example 2, N-[(3-Benzyl-1-oxo-isoindolin-5-yl)methyl]-1-methyl-1H-imidazole-4-sulfonamide] |
| < 1 | Cn1cnc(S(=O)(=O)NCCOc2ccc3c(c2)C(Cc2ccccc2)NC3=O)c1 (centres unmarked) [Example 1, N-[2-(3-benzyl-1-oxo-isoindolin-5-yl)oxyethyl]-1-methyl-1H-imidazole-4-sulfonamide] |
| < 1 | CC1(Cc2ccccc2)NCc2ccc(OCCNS(=O)(=O)CC3CC3)cc21 (centres unmarked) [Example 18, N-[2-(3-Benzyl-3-methyl-isoindolin-5-yl)oxyethyl]-1-cyclopropyl-methanesulfonamide; 2,2,2-trifluoroacetic acid] |
| < 100 | CCS(=O)(=O)NCc1ccc2c(c1)C(Cc1ccccc1)NC2 (centres unmarked) [Example 30, Ethanesulfonic acid (3-benzyl-2,3-dihydro-1H-isoindol-5-ylmethyl)-amide] |
| < 1 | Cn1cc(S(=O)(=O)NCCOc2ccc3c(c2)C(Cc2ccccc2)N(CC(F)(F)F)C3)cn1 (centres unmarked) [Example 15, N-[2-[3-Benzyl-2-(2,2,2-trifluoroethyl)isoindolin-5-yl]oxyethyl]-1-methyl-1H-pyrazole-4-sulfonamide; 2,2,2-trifluoroacetic acid] |
| < 1 | O=S(=O)(CC1CC1)NCCOc1cc2c(cc1F)CNC2Cc1ccccc1 (centres unmarked) [Example 23, N-[2-(3-Benzyl-6-fluoro-2,3-dihydro-1H-isoindol-5-yloxy)-ethyl]-C-cyclopropyl-methanesulfonamide] |
| < 10 | CCS(=O)(=O)NCCOc1cc2c(cc1F)CNC2Cc1ccccc1 (centres unmarked) [Example 25, Ethanesulfonic acid [2-(3-benzyl-6-fluoro-2,3-dihydro-1H-isoindol-5-yloxy)-ethyl]-amide] |
| < 10 | Cn1cc(S(=O)(=O)NCCOc2ccc3c(c2)C(C)(Cc2ccccc2)NC3=O)cn1 (centres unmarked) [Example 9, N-[2-(3-Benzyl-3-methyl-1-oxo-isoindolin-5-yl)oxyethyl]-1-methyl-1H-pyrazole-4-sulfonamide] |
| < 10 | O=C1NC(Cc2ccccc2)c2cc(OCCNS(=O)(=O)CC3CC3)c(F)cc21 (centres unmarked) [Example 22, N-[2-(3-Benzyl-6-fluoro-1-oxo-2,3-dihydro-1H-isoindol-5-yloxy)-ethyl]-C-cyclopropyl-methanesulfonamide] |
| < 1 | Cn1cc(S(=O)(=O)NCCOc2ccc3c(c2)C(Cc2ccccc2)N(C(=O)C(F)(F)F)C3)cn1 (centres unmarked) [Example 12] |
| < 10 | CC1(Cc2ccccc2)NC(=O)c2ccc(OCCNS(=O)(=O)CC3CC3)cc21 (centres unmarked) [Example 17, N-[2-(3-Benzyl-3-methyl-1-oxo-isoindolin-5-yl)oxyethyl]-1-cyclopropyl-methanesulfonamide] |
| < 0.1 | Cn1cc(S(=O)(=O)NCCOc2ccc3c(c2)C(Cc2ccccc2)N(C2COC2)C3)cn1 (centres unmarked) [Example 16, N-[2-[3-Benzyl-2-(oxetan-3-yl)isoindolin-5-yl]oxyethyl]-1-methyl-1H-pyrazole-4-sulfonamide; 2,2,2-trifluoroacetic acid] |
| < 1 | Cn1cnc(S(=O)(=O)NCc2ccc3c(c2)C(Cc2ccccc2)NC3)c1 (centres unmarked) [Example 4, N-[(3-Benzylisoindolin-5-yl)methyl]-1-methyl-1H-imidazole-4-sulfonamide] |
| < 10 | CCCS(=O)(=O)NCc1ccc2c(c1)C(Cc1ccccc1)NC2 (centres unmarked) [Example 31, Propane-1-sulfonic acid (3-benzyl-2,3-dihydro-1H-isoindol-5-ylmethyl)-amide] |
| > 10 | CC(C)(C)OC(=O)NCCOc1ccc2c(c1)C(Cc1ccccc1)NC2=O (centres unmarked) [Example 3, [2-(3-Benzyl-1-oxo-2,3-dihydro-1H-isoindol-5-yloxy)-ethyl]-carbamic acid tert-butyl ester] |
| < 10 | O=S(=O)(CC1CC1)NCc1ccc2c(c1)C(Cc1ccccc1)NC2 (centres unmarked) [Example 29, N-(3-Benzyl-2,3-dihydro-1H-isoindol-5-ylmethyl)-C-cyclopropyl-methanesulfonamide] |
| < 1 | Cn1cnc(S(=O)(=O)NCCOc2cc3c(cc2F)C(=O)NC3Cc2ccccc2)c1 (centres unmarked) [Example 19, N-[2-(3-Benzyl-6-fluoro-1-oxo-isoindolin-5-yl)oxyethyl]-1-methyl-1H-imidazole-4-sulfonamide] |
| < 10 | O=C1NC(Cc2ccccc2)c2cc(CNS(=O)(=O)CC3CC3)ccc21 (centres unmarked) [Example 26, N-(3-Benzyl-1-oxo-2,3-dihydro-1H-isoindol-5-ylmethyl)-C-cyclopropyl-methanesulfonamide] |
| < 10 | Cn1cc(S(=O)(=O)NCCOc2ccc3c(c2)C(Cc2ccccc2)NC3=O)cn1 (centres unmarked) [Example 6, N-[2-(3-Benzyl-1-oxo-isoindolin-5-yl)oxyethyl]-1-methyl-1H-pyrazole-4-sulfonamide] |
| < 0.1 | Cn1cnc(S(=O)(=O)NCCOc2cc3c(cc2F)CNC3Cc2ccccc2)c1 (centres unmarked) [Example 21, 1-Methyl-1H-imidazole-4-sulfonic acid [2-(3-benzyl-6-fluoro-2,3-dihydro-1H-isoindol-5-yloxy)-ethyl]-amide] |
| < 1 | CN1Cc2cc(F)c(OCCNS(=O)(=O)CC3CC3)cc2C1Cc1ccccc1 (centres unmarked) [Example 20, N-(2-(3-Benzyl-6-fluoro-2-methylisoindolin-5-yloxy)ethyl)-1-cyclopropyl-methanesulfonamide] |
| < 0.1 | CN1Cc2ccc(OCCNS(=O)(=O)c3cn(C)cn3)cc2C1Cc1ccccc1 (centres unmarked) [Example 14, N-[2-(3-Benzyl-2-methyl-isoindolin-5-yl)oxyethyl]-1-methyl-1H-imidazole-4-sulfonamide; 2,2,2-trifluoroacetic acid] |
| < 0.1 | Cn1cnc(S(=O)(=O)NCCOc2ccc3c(c2)C(C)(Cc2ccccc2)NC3)c1 (centres unmarked) [Example 11, N-[2-(3-Benzyl-3-methyl-isoindolin-5-yl)oxyethyl]-1-methyl-imidazole-4-sulfonamide] |
| < 0.1 | Cn1cc(S(=O)(=O)NCCOc2ccc3c(c2)C(C)(Cc2ccccc2)NC3)cn1 (centres unmarked) [Example 10, N-[2-(3-Benzyl-3-methyl-isoindolin-5-yl)oxyethyl]-1-methyl-1H-pyrazole-4-sulfonamide] |
| < 10 | Cn1cnc(S(=O)(=O)NCCOc2ccc3c(c2)C(C)(Cc2ccccc2)NC3=O)c1 (centres unmarked) [Example 8, N-[2-(3-Benzyl-3-methyl-1-oxo-isoindolin-5-yl)oxyethyl]-1-methyl-1H-imidazole-4-sulfonamide] |
| < 0.01 | CN1Cc2ccc(OCCNS(=O)(=O)c3cnn(C)c3)cc2C1Cc1ccccc1 (centres unmarked) [Example 13, N-[2-(3-Benzyl-2-methyl-isoindolin-5-yl)oxyethyl]-1-methyl-1H-pyrazole-4-sulfonamide; 2,2,2-trifluoroacetic acid] |
| < 10 | CCCS(=O)(=O)NCc1ccc2c(c1)C(Cc1ccccc1)NC2=O (centres unmarked) [Example 28, Propane-1-sulfonic acid (3-benzyl-1-oxo-2,3-dihydro-1H-isoindol-5-ylmethyl)-amide] |
| < 10 | CCS(=O)(=O)NCCOc1cc2c(cc1F)C(=O)NC2Cc1ccccc1 (centres unmarked) [Example 24, Ethanesulfonic acid [2-(3-benzyl-6-fluoro-1-oxo-2,3-dihydro-1H-isoindol-5-yloxy)-ethyl]-amide] |

tested on: not listed separately; experiment: Metabolic stability in human liver microsomes (microsomal clearance); type: in vitro ADME; settings: 0.5 μM test substance, 0.25 mg microsomal protein/ml, pH 7.4, 37° C., NADPH
Procedure: The metabolic stability of a compound can be measured for example by incubating a solution of this compound with liver microsomes from particular species (for example rat, dog or human) and determining the half-life of the compound under these conditions (RS Obach, Curr Opin Drug Discov Devel. 2001, 4, 36-44). It is possible in this connection to conclude from an observed longer half-life that the metabolic stability of the compound is improved. The stability in the presence of human liver microsomes is of particular interest because it makes it possible to predict the metabolic degradation of the compound in the human liver. Compounds with increased metabolic stability (measured in the liver microsome test) are therefore probably also degraded more slowly in the liver. The slower metabolic degradation in the liver may lead to higher and/or longer-lasting concentrations (active levels) of the compound in the body, so that the elimination half-life of the compounds of the invention is increased. Increased and/or longer-lasting active levels may lead to a better activity of the compound in therapeutic treatment. […]
Metabolic stability was determined as follows:
0.5 μM test substance was preincubated together with human liver microsomes (0.25 mg of microsomal protein/ml) in 0.05 M potassium phosphate buffer of pH 7.4 in microtiter plates at 37° C. for 5 min. […] The samples were frozen until analyzed. The remaining concentration of undegraded test substance was determined by LC MSMS. The half-life (T½) was determined from the gradient of the signal of test substance/unit time plot, allowing to calculate the half-life of the test substance, assuming first order kinetics, from the decrease in the concentration of the compound with time. The microsomal clearance (mCl) was calculated from mCl=ln 2/T½/(content of microsomal protein in mg/ml)×1000 (modified from references: Di, The Society for Biomolecular Screening, 2003, 453-462; Obach, DMD, 1999 vol 27. N 11, 1350-1359).

| human mCl [µL/min/mg] | Structure (SMILES) |
| --- | --- |
| <1 | Cn1cnc(S(=O)(=O)NCc2ccc3c(c2)C(Cc2ccccc2)NC3)c1 (centres unmarked) [Example 4, N-[(3-Benzylisoindolin-5-yl)methyl]-1-methyl-1H-imidazole-4-sulfonamide] |
